Drawing on ChEMBL document CHEMBL1777811, “Actin depolymerizing effect of trisoxazole-containing macrolides” (2011), this text covers MIC and Activity for six compounds.

Assay [1] concerns Aspergillus fumigatus. Kind of assay: Antifungal activity against Aspergillus fumigatus HIC 6094 after 48 to72 hrs by twofold serial dilution method. The assay is classed as functional.
The test system of assay [2] is Candida albicans. Kind of assay: Antifungal activity against Candida albicans ATCC 10231 after 48 to72 hrs by twofold serial dilution method. It counts as functional.
The subject of assay [3] is Trichophyton mentagrophytes. Kind of assay: Antifungal activity against Trichophyton mentagrophytes IFO 40996 after 48 to72 hrs by twofold serial dilution method. It counts as functional.
Assay [4] can be described thus: Induction of depolymerization of F-actin at 1.82 uM by fluorimetry relative to control.
Assay [5] has as its system Proteus vulgaris. Briefly: Antibacterial activity against Proteus vulgaris ATCC 3851 at 100 ug/ml after 24 hrs by twofold serial dilution method. The assay is classed as functional, organism-based.
In assay [6] the test system is Escherichia coli. Briefly: Antibacterial activity against Escherichia coli ATCC 25922 at 100 ug/ml after 24 hrs by twofold serial dilution method. It counts as functional, organism-based.
A short description of assay [7]: Induction of depolymerization of F-actin by fluorimetry.
Assay [8] concerns Staphylococcus aureus. Briefly: Antibacterial activity against Staphylococcus aureus ATCC 6538p at 100 ug/ml after 24 hrs by twofold serial dilution method. It counts as functional, organism-based.
Assay [9] concerns Bacillus subtilis. Briefly: Antibacterial activity against Bacillus subtilis ATCC 6633 at 100 ug/ml after 24 hrs by twofold serial dilution method. The assay is classed as functional, organism-based.
For assay [10], the system named is Staphylococcus aureus. Kind of assay: Antibacterial activity against Staphylococcus aureus IFO 12708 at 100 ug/ml after 24 hrs by twofold serial dilution method. It counts as functional, organism-based.
Assay [11] relates to Salmonella typhimurium. Kind of assay: Antibacterial activity against Salmonella Typhimurium ATCC 14028 at 100 ug/ml after 24 hrs by twofold serial dilution method. The assay is classed as functional, organism-based. The following applies: Salmonella enterica subsp. enterica serovar Typhimurium.
Assay [12] concerns Trichophyton rubrum. Kind of assay: Antifungal activity against Trichophyton rubrum IFO 9185 after 48 to72 hrs by twofold serial dilution method. The assay is classed as functional.
The nature of assay [13]: Induction of depolymerization of F-actin at 7.28 uM by fluorimetry relative to control.
Assay [14] is described as follows: Induction of depolymerization of F-actin at 112 uM by fluorimetry relative to control.
The nature of assay [15]: Induction of depolymerization of F-actin at 14 to 114 uM by fluorimetry relative to control.
Assay [16] is described as follows: Induction of depolymerization of F-actin at 15 to 120 uM by fluorimetry relative to control.

Active and inactive are the calls of the source. A value given as a limit tells only on which side of the number the result lay.

With `COC(CC1OC(=O)CC(O)C/C=C\C(=O)C(C)C(OC)c2coc(n2)-c2coc(n2)-c2coc(n2)/C=C\CCC1C)C(C)CCC(=O)C(C)C(C/C=C/N(C)C=O)OC` (stereo unspecified), the MIC – broadly, the smallest concentration in the dilution series that meets the test's criterion for growth inhibition – in [1] is 14.6 µM; in [2], 0.91 µM; in assay [3], 14.6 µM; in assay [12] it was 7.27 µM. Besides, the Activity in assay [4] was > 90%; in assay [7], “Dose-dependent effect”. Moreover, the outcome in assay [5], in [6], in assay [8], in assay [9], in [10] and in [11] was inactive.
In the case of `C[C@@H]1[C@H](O)[C@@H](C)/C=C/C=C/C=C/C=C/C=C/C=C/C=C/[C@H](O[C@@H]2O[C@H](C)[C@@H](O)[C@H](N)[C@@H]2O)C[C@@H]2O[C@](O)(C[C@@H](O)C[C@@H](O)[C@H](O)CC[C@@H](O)C[C@@H](O)CC(=O)O[C@H]1C)C[C@H](O)[C@H]2C(=O)O` [AMPHOTERICIN B], the minimum inhibitory concentration (MIC) in [1] was found to be 0.84 µM; in assay [2], 0.22 µM; in assay [3] it was 0.84 µM; in assay [12] it was 0.84 µM.
Turning to `COC(CC1OC(=O)CC(O)C/C=C/C(=O)C(C)C(OC)c2coc(n2)-c2coc(n2)-c2coc(n2)/C=C/CCC1C)C(C)CCC(=O)C(C)C(C/C=C/N(C)C=O)OC` (stereo unspecified) [HALICHONDRAMIDE], the Activity is > 90% in [13] and “Dose-dependent effect” in assay [7]. Further, the minimal inhibitory concentration (MIC) turned out to be 0.45 µM in [1], 0.23 µM in assay [2], 0.91 µM in assay [3] and 0.48 µM in [12]. The result in [5], in assay [6], in [8], in [9], in assay [10] and in assay [11] was inactive.
As for `COC(=O)c1coc(/C=C/CCC(C)C(CC(OC)C(C)CCC(=O)C(C)C(C/C=C/N(C)C=O)OC)OC(=O)CC(O)C/C=C/C(=O)C(C)C(OC)c2coc(C(N)=O)n2)n1` (stereo unspecified) [HALISHIGAMIDE D], the MIC in assay [1], in assay [2], in assay [3] and in assay [12] was > 100 µg/mL throughout. For the same compound, the outcome in assay [5], in assay [6], in assay [8], in assay [9], in [10] and in assay [11] was inactive. Besides, in assay [14], the Activity came to 40%.
In the case of `COC(CC1OC(=O)CC(O)CC(O)CC(=O)C(C)C(OC)c2coc(n2)-c2coc(n2)-c2coc(n2)/C=C/CCC1C)C(C)CCC(=O)C(C)C(C/C=C/N(C)C=O)OC` (stereo unspecified) [JASPISAMIDE A], the MIC in assay [1], in assay [2], in [3] and in assay [12] was > 100 µg/mL throughout. Further, the outcome in [15], in [5], in [6], in assay [8], in [9] and in assay [10] was inactive. For the same compound, in [11], the result was inactive.
As to `COC(CC1OC(=O)CC(O)/C=C/CC(=O)C(C)C(OC)c2coc(n2)-c2coc(n2)-c2coc(n2)/C=C/CCC1C)C(C)CCC(=O)C(C)C(C/C=C/N(C)C=O)OC` (stereo unspecified) [NEOHALICHONDRAMIDE], the MIC in [1], in assay [2], in assay [3] and in [12] was > 100 µg/mL in each case. For the same compound, the outcome in assay [5], in assay [6], in assay [8], in [9], in [10] and in assay [11] was inactive. Moreover, the result in [16] was inactive.
